Non-standard residues stand in square brackets, D forms with d. Residues, ends and D or L forms follow the SMILES beside them. No end group written: not given here. Hyp = O=C(O)[C@@H]1C[C@@H](O)CN1
experiment: not given; conditions: not given
Protocol: The propensity measurements for all 20 amino acid residues in the Xaa1 position in a Gly-Xaa1-Hyp context and all 20 amino acid residues in the Xaa2 position in a Gly-Pro-Xaa2 context were determined by measuring thermal stability of host-guest peptides (Persikov, et al. (2000) supra).
The Tm values of all host-guest peptides were measured under a set of standard conditions, with c=1 mg/ml in phosphate-buffered saline, pH 7.0, and with a heating rate average of 0.1° C./minute (Persikov, et al. (2004) supra).

decrease in stability relative to Gly-Pro-Hyp [°C] | Molecule
21 | Gly-Pro-[Hyp]
6.4 | Gly-Pro-Ala
~0 | Gly-Pro-Arg

same assay, conditions: host-guest peptide, (Gly-Pro-Hyp)8 host; c=1 mg/ml in phosphate-buffered saline, pH 7.0, heating rate 0.1° C./minute

experimentally observed Tm of Gly-Xaa1-Xaa2 tripeptide unit in a triple helix [°C] | Molecule
41.3 | Gly-Pro-Gln
45.5 | Gly-Pro-Pro
19.7 | Gly-Gly-Phe
40.9 | Gly-Pro-Ala
26.0 | Gly-Gly-Ala
47.2 | Gly-Pro-Arg

The remaining lines, values behind:

Molecule | experimentally observed Tm of Gly-Xaa1-Xaa2 tripeptide unit in a triple helix [°C]
Gly-Pro-Glu | 39.7
Gly-Ala-[Hyp] | 41.7
Gly-Pro-Ser | 35.0
Gly-Pro-Val | 40.0
Gly-Pro-Lys | 36.8
Gly-Pro-Gly | 32.9

same assay, conditions: peptide of Table 3, defined standard conditions

Tm^obs [°C] | Molecule
23.3 | CC(=O)NCC(=O)N1CCC[C@H]1C(=O)N1C[C@H](O)C[C@H]1C(=O)NCC(=O)N[C@@H](CCCNC(=N)N)C(=O)N1C[C@H](O)C[C@H]1C(=O)NCC(=O)N[C@@H](CCCNC(=N)N)C(=O)N[C@@H](CCCNC(=N)N)C(=O)NCC(=O)N[C@@H](CCCNC(=N)N)C(=O)N1C[C@H](O)C[C@H]1C(=O)NCC(=O)N[C@@H](CC(C)C)C(=O)N[C@@H](CCCCN)C(=O)NCC(=O)N[C@@H](CCC(=O)O)C(=O)N[C@@H](CCC(N)=O)C(=O)NCC(=O)N1CCC[C@H]1C(=O)N1C[C@H](O)C[C@H]1C(=O)NCC(=O)N1CCC[C@H]1C(=O)N1C[C@H](O)C[C@H]1C(=O)NCC(=O)N1CCC[C@H]1C(=O)N1C[C@H](O)C[C@H]1C(=O)NCC(=O)N1CCC[C@H]1C(=O)N1C[C@H](O)C[C@H]1C(=O)NCC(=O)N[C@@H](Cc1ccc(O)cc1)C(N)=O [C1qA-15, Ac-GPO-GRO-GRR-GRO-GLK-GEQ-(GPO)4-GY-NH2] (Ac-GP[Hyp]GR[Hyp]GRRGR[Hyp]GLKGEQGP[Hyp]GP[Hyp]GP[Hyp]GP[Hyp]GY-NH2)
<4 | CC[C@H](C)[C@H](NC(=O)CNC(=O)[C@H](CO)NC(=O)[C@@H]1CCCN1C(=O)CNC(=O)[C@@H]1C[C@@H](O)CN1C(=O)[C@@H]1CCCN1C(=O)CNC(=O)[C@@H](NC(=O)[C@H](CCCNC(=N)N)NC(=O)CNC(=O)[C@H](C)NC(=O)[C@H](C)NC(=O)CNC(=O)[C@@H]1C[C@@H](O)CN1C(=O)[C@H](Cc1ccccc1)NC(=O)CNC(C)=O)[C@@H](C)O)C(=O)N[C@@H](CO)C(=O)NCC(=O)N1CCC[C@H]1C(=O)N1C[C@H](O)C[C@H]1C(=O)NCC(=O)N1CCC[C@H]1C(=O)N1C[C@H](O)C[C@H]1C(=O)NCC(=O)N1CCC[C@H]1C(=O)N1C[C@H](O)C[C@H]1C(=O)NCC(=O)N1CCC[C@H]1C(=O)N1C[C@H](O)C[C@H]1C(=O)NCC(=O)N[C@H](C(N)=O)C(C)C [T1A2-697, Ac-GFO-GAA-GRT-GPO-GPS-GIS-(GPO)4-GV-NH2] (Ac-GF[Hyp]GAAGRTGP[Hyp]GPSGISGP[Hyp]GP[Hyp]GP[Hyp]GP[Hyp]GV-NH2)
<4 | CC(=O)NCC(=O)N1CCC[C@H]1C(=O)N[C@@H](CCCNC(=N)N)C(=O)NCC(=O)N[C@@H](CC(N)=O)C(=O)N[C@@H](CCCNC(=N)N)C(=O)NCC(=O)N[C@@H](CCC(=O)O)C(=O)N[C@@H](CCCNC(=N)N)C(=O)NCC(=O)N[C@@H](CO)C(=O)N[C@@H](CCC(=O)O)C(=O)NCC(=O)N[C@@H](CO)C(=O)N1C[C@H](O)C[C@H]1C(=O)NCC(=O)N[C@@H](Cc1c[nH]cn1)C(=O)N1C[C@H](O)C[C@H]1C(=O)NCC(=O)N[C@@H](CCC(N)=O)C(=O)N1C[C@H](O)C[C@H]1C(=O)NCC(=O)N1CCC[C@H]1C(=O)N1C[C@H](O)C[C@H]1C(=O)NCC(=O)N1CCC[C@H]1C(=O)N1C[C@H](O)C[C@H]1C(=O)NCC(=O)N[C@@H](C)C(=O)N1C[C@H](O)C[C@H]1C(=O)NCC(=O)N[C@H](C(N)=O)C(C)C [T3-997, Ac-GPR-GNR-GER-GSE-GSO-GHO-GQO-GPO-GPO-GAO-GV-NH2] (Ac-GPRGNRGERGSEGS[Hyp]GH[Hyp]GQ[Hyp]GP[Hyp]GP[Hyp]GA[Hyp]GV-NH2)

Continued, molecule first:

Molecule | Tm^obs [°C]
CC(=O)NCC(=O)N[C@@H](CCC(=O)O)C(=O)N[C@@H](CCCNC(=N)N)C(=O)NCC(=O)N[C@@H](CCC(=O)O)C(=O)N[C@@H](CCCNC(=N)N)C(=O)NCC(=O)N[C@@H](CCC(=O)O)C(=O)N[C@@H](CCCCN)C(=O)NCC(=O)N[C@@H](CCC(=O)O)C(=O)N[C@@H](CCCNC(=N)N)C(=O)NCC(=O)N[C@@H](CCC(=O)O)C(=O)N[C@@H](CCC(N)=O)C(=O)NCC(=O)N[C@@H](CCCNC(=N)N)C(=O)N[C@@H](CC(=O)O)C(=O)NCC(=O)N1CCC[C@H]1C(=O)N1C[C@H](O)C[C@H]1C(=O)NCC(=O)N1CCC[C@H]1C(=O)N1C[C@H](O)C[C@H]1C(=O)NCC(=O)N1CCC[C@H]1C(=O)N1C[C@H](O)C[C@H]1C(=O)NCC(=O)N1CCC[C@H]1C(=O)N1C[C@H](O)C[C@H]1C(=O)NCC(=O)N[C@H](C(N)=O)C(C)C [T7-2058, Ac-GER-GER-GEK-GER-GEQ-GRD-(GPO)4-GV-NH2] (Ac-GERGERGEKGERGEQGRDGP[Hyp]GP[Hyp]GP[Hyp]GP[Hyp]GV-NH2) | 23.2
CC(=O)NCC(=O)N[C@@H](C)C(=O)N[C@@H](CCCNC(=N)N)C(=O)NCC(=O)N1CCC[C@H]1C(=O)N[C@@H](C)C(=O)NCC(=O)N1CCC[C@H]1C(=O)N[C@@H](CCC(N)=O)C(=O)NCC(=O)N1CCC[C@H]1C(=O)N[C@@H](CCCNC(=N)N)C(=O)NCC(=O)N[C@@H](CC(=O)O)C(=O)N[C@@H](CCCCN)C(=O)NCC(=O)N[C@@H](CCC(=O)O)C(=O)N[C@H](C(=O)NCC(=O)N1CCC[C@H]1C(=O)N1C[C@H](O)C[C@H]1C(=O)NCC(=O)N1CCC[C@H]1C(=O)N1C[C@H](O)C[C@H]1C(=O)NCC(=O)N1CCC[C@H]1C(=O)N1C[C@H](O)C[C@H]1C(=O)NCC(=O)N1CCC[C@H]1C(=O)N1C[C@H](O)C[C@H]1C(=O)NCC(=O)N[C@H](C(N)=O)C(C)C)[C@@H](C)O [T1-904, Ac-GAR-GPA-GPQ-GPR-GDK-GET-(GPO)4-GV-NH2] (Ac-GARGPAGPQGPRGDKGETGP[Hyp]GP[Hyp]GP[Hyp]GP[Hyp]GV-NH2) | 30.8
CC[C@H](C)[C@H](NC(=O)CNC(=O)[C@H](CC(C)C)NC(=O)[C@@H]1CCCN1C(=O)CNC(=O)[C@@H]1C[C@@H](O)CN1C(=O)[C@H](C)NC(=O)CNC(=O)[C@@H]1C[C@@H](O)CN1C(=O)[C@@H]1CCCN1C(=O)CNC(C)=O)C(=O)N[C@@H](C)C(=O)NCC(=O)N[C@H](C(=O)N[C@H](C(=O)NCC(=O)N[C@@H](C)C(=O)N[C@@H](CCCNC(=N)N)C(=O)NCC(=O)N[C@@H](CC(C)C)C(=O)N[C@@H](C)C(=O)NCC(=O)N1CCC[C@H]1C(=O)N1C[C@H](O)C[C@H]1C(=O)NCC(=O)N1CCC[C@H]1C(=O)N1C[C@H](O)C[C@H]1C(=O)NCC(=O)N1CCC[C@H]1C(=O)N1C[C@H](O)C[C@H]1C(=O)NCC(=O)N1CCC[C@H]1C(=O)N1C[C@H](O)C[C@H]1C(=O)NCC(=O)NCC(N)=O)[C@@H](C)O)[C@@H](C)CC [T3-772, Ac-GPO-GAO-GPL-GIA-GIT-GAR-GLA-(GPO)4-GG-NH2] (Ac-GP[Hyp]GA[Hyp]GPLGIAGITGARGLAGP[Hyp]GP[Hyp]GP[Hyp]GP[Hyp]GG-NH2) | <4

experiment: Method for predicting global Tm of collagen peptides from amino acid sequence; conditions: observed minus predicted, peptides of Table 3
Protocol: The global thermal stability of homotrimeric triple helical peptides with length of at least 6 tripeptide units and, in most cases, containing 10 tripeptide units was determined as follows.
For the total number of triplets n in a given peptide, the base Tm^0(n) for (Pro-Hyp-Gly) or (Pro-Pro-Gly)n was calculated from the length dependence (Equation 1), including any effect of blocking groups;
The melting temperature value was decreased for every triplet in the sequence that was not Gly-Pro-Hyp, subtracting a value of ΔTm^GXY (Table 1). The N-terminal and C-terminal tripeptide units were excluded from the calculation due to the staggering of the chains and the disorder for the peptide ends (Bella et al. (1994) supra; Li, et al. (1993) Biochemistry 32:7377-7387; Kramer, et al. (2001) J. Mol. Biol. 301:1191-1205).
The resulting value for the peptide melting temperature was adjusted using the ΔTm^int values for interactions between neighboring tripeptides (Table 2).
The method was formulated as follows.
To extrapolate the dependence of the Tm of the host peptides on peptide length, the experimental values for (Pro-Hyp-Gly)n and (Pro-Pro-Gly)n versus n, where n is the number of tripeptide units, were fit to the exponential decay function
[formula] where Tm^0(n) is defined as the base thermal stability of the repeating polytripeptide standard, Tm^max is the maximum melting temperature, and the constant n0 represents the length of the repeating peptide with Tm=0.

ΔTm | Molecule
−7.4 °C | CC(=O)NCC(=O)N1CCC[C@H]1C(=O)N1C[C@H](O)C[C@H]1C(=O)NCC(=O)N[C@@H](CCCNC(=N)N)C(=O)N1C[C@H](O)C[C@H]1C(=O)NCC(=O)N[C@@H](CCCNC(=N)N)C(=O)N[C@@H](CCCNC(=N)N)C(=O)NCC(=O)N[C@@H](CCCNC(=N)N)C(=O)N1C[C@H](O)C[C@H]1C(=O)NCC(=O)N[C@@H](CC(C)C)C(=O)N[C@@H](CCCCN)C(=O)NCC(=O)N[C@@H](CCC(=O)O)C(=O)N[C@@H](CCC(N)=O)C(=O)NCC(=O)N1CCC[C@H]1C(=O)N1C[C@H](O)C[C@H]1C(=O)NCC(=O)N1CCC[C@H]1C(=O)N1C[C@H](O)C[C@H]1C(=O)NCC(=O)N1CCC[C@H]1C(=O)N1C[C@H](O)C[C@H]1C(=O)NCC(=O)N1CCC[C@H]1C(=O)N1C[C@H](O)C[C@H]1C(=O)NCC(=O)N[C@@H](Cc1ccc(O)cc1)C(N)=O [C1qA-15, Ac-GPO-GRO-GRR-GRO-GLK-GEQ-(GPO)4-GY-NH2] (Ac-GP[Hyp]GR[Hyp]GRRGR[Hyp]GLKGEQGP[Hyp]GP[Hyp]GP[Hyp]GP[Hyp]GY-NH2)
−2.2 °C | CC(=O)NCC(=O)N1CCC[C@H]1C(=O)N1C[C@H](O)C[C@H]1C(=O)NCC(=O)N1CCC[C@H]1C(=O)N1C[C@H](O)C[C@H]1C(=O)NCC(=O)N1CCC[C@H]1C(=O)N1C[C@H](O)C[C@H]1C(=O)NCC(=O)N1CCC[C@H]1C(=O)N1C[C@H](O)C[C@H]1C(=O)NCC(=O)N1CCC[C@H]1C(=O)N[C@@H](C)C(=O)NCC(=O)N1CCC[C@H]1C(=O)N[C@@H](C)C(=O)NCC(=O)N1CCC[C@H]1C(=O)N[C@H](C(=O)NCC(=O)N1CCC[C@H]1C(=O)N[C@@H](C)C(=O)NCC(=O)N[C@@H](C)C(=O)N[C@@H](CCCNC(=N)N)C(=O)NCC(=O)N1CCC[C@H]1C(=O)N[C@@H](C)C(=O)NCC(=O)N[C@H](C(N)=O)C(C)C)C(C)C [T1-892r, Ac-(GPO)4-GPA-GPA-GPV-GPA-GAR-GPA-GV-NH2] (Ac-GP[Hyp]GP[Hyp]GP[Hyp]GP[Hyp]GPAGPAGPVGPAGARGPAGV-NH2)

Molecule | ΔTm
MBL: MBL peptide(s) of Table 3 containing Gly-Lys-Asp-Gly-Arg-Asp-Gly-Thr-Lys-Gly-Glu-Lys-Gly-Glu-Hyp; not said whether MBL 42-61 or 45-61 (GKDGRDGTKGEKGEP) | higher than observed
